Reference: publication PMC12017303 (Science Advances, 2025)

Experiments:
[1] = system: SARS-CoV-2 variants WA1, XBB.1.5, XBB.1.16, and EG.5.1; assay: microbe, parasite or virus in culture; assay type: cell-based; conditions: Severe acute respiratory syndrome coronavirus 2, read-out: EC50 range against all viruses tested
SARS-CoV-2 Beta variant = conditions: mouse, in vivo

| Compound | EC50 [1] [nM] | SARS-CoV-2 N protein in lung (immunohistochemistry) (SARS-CoV-2 Beta variant) | reduction in virus replication compared to the vehicle (plaque assay) (SARS-CoV-2 Beta variant) [log] | reduction in viral load compared to the ensitrelvir-treated arm (SARS-CoV-2 Beta variant) [log] | reduction in viral load compared to vehicle-treated animals (SARS-CoV-2 Beta variant) | reduction in viral titers (SARS-CoV-2 Beta variant) | viral titers after three doses, result in words (SARS-CoV-2 Beta variant) | IC50 for decrease in lung virus replication (SARS-CoV-2 Beta variant) [mg/kg] | mononuclear cell infiltration and respiratory epithelial cell injury in lung (SARS-CoV-2 Beta variant) |
| --- | --- | --- | --- | --- | --- | --- | --- | --- | --- |
| CC(C)(C)[C@H](NC(=O)C(F)(F)F)C(=O)N1C[C@H]2[C@@H]([C@H]1C(=O)N[C@H](C#N)C[C@@H]1CCNC1=O)C2(C)C [nirmatrelvir, reference compound] | 21 to 67 | minimal or no viral protein present | 2 |  |  |  |  |  |  |
| C#CCn1c(C)c(-n2nnc3cc(F)c(F)cc32)c(=O)n(-c2cncc3ccccc23)c1=O [AVI-4773] |  |  |  | > 3 | ~ 6 log | > 1,000,000 | below detectable levels |  |  |
| C#CCn1c(C)c(-n2nnc3ccccc32)c(=O)n(-c2cncc3ccccc23)c1=O [AVI-4516] |  | minimal or no viral protein present |  |  |  |  |  | 14.7 | notably absent |
